Assay results from patent publication US9434724B2, “Quinuclidines for modulating alpha 7 activity” (priority 2014, dated 2016).

Tested on: not listed separately
Experiment: Metabolic stability assay in human liver microsomes (HLM)
Assay type: in vitro ADME
Conditions: human, microsomes, 1 μM, pH 7.4
Method: (§1) Protocol 1: Studies were carried out in human and rat liver microsomes (“HLM” and “RLM,” respectively). Human and rat liver microsomes were purchased from BD Gentest. DMSO stocks were prepared for the test compounds. Aliquots of the DMSO solutions were diluted to 0.5 mM by acetonitrile, then further diluted by liver microsomes/buffer to 1.5 μM. 30 μL of 1.5 μM solutions were mixed with 15 μL of 6 mM NADPH, which had been pre-warmed to 37° C., at a final test compound concentration of 1 μM. The plates were kept in a 37° C. water bath for the duration of the experiment. At each time point (0, 5, 15, 30, 45 minutes), 135 μL of acetonitrile was added into corresponding wells. After the final time point was sampled, the plates were shaken at a vibrator (IKA, MTS 2/4) for 10 min (600 rpm/min) and then centrifuged at 5594 g for 15 min (Thermo Multifuge×3R). Aliquots of the supernatant were removed, diluted 1:1 into distilled water, and analyzed by LC-MS/MS. The peak area response ratio to internal standard (PARR) of the compounds at 5, 15, 30, 45 minutes was compared to the PARR at time 0 to determine the percent of test compound remaining at each time point. Half-lives were calculated using Excel software, fitting to a single-phase exponential decay equation.
(§2) Protocol 2: Studies were carried out in human and rat liver microsomes. Buffer solutions were prepared as follows: Buffer A: 1.0 L of 0.1 M monobasic Potassium Phosphate buffer containing 1.0 mM EDTA; Buffer B: 1.0 L of 0.1 M Dibasic Potassium Phosphate buffer containing 1.0 mM EDTA; Buffer C: 0.1 M Potassium Phosphate buffer, 1.0 mM EDTA, pH 7.4 by titrating 700 mL of buffer B with buffer A while monitoring with a pH meter.
(§3) Reference compound (Ketanserin) and test compound spiking solutions were prepared as follows: 500 μM spiking solution: add 10 μL of 10 mM DMSO stock solution into 190 μL ACN; 1.5 μM spiking solution in microsomes (0.75 mg/mL): add 1.5 μL of 500 μM spiking solution and 18.75 μL of 20 mg/mL liver microsomes into 479.75 μL of Buffer C.
(§4) NADPH stock solution (6 mM) was prepared by dissolving NADPH into buffer C.
(§5) Assay procedure: 30 μL of 1.5 μM spiking solution containing 0.75 mg/mL microsomes solution was dispensed to the wells designated for […]. The plate was pre-incubated at 37° C. for 10 minutes. 15 μL of NADPH stock solution (6 mM) was added to the wells designated as Time 45, and the timer was started. At 30 mM, 15 mM, and 5 mM, 15 μL NADPH stock solution (6 mM) was added to the wells, respectively. At the end of incubation (0 mM), 135 μL of ACN containing IS was added to all the wells. Then 15 μL of NADPH stock solution (6 mM) was added to the wells designated as Time 0. After quenching, the reaction mixtures were centrifuged at 3220 g for […]. Following centrifugation, 50 μL of the supernatant was transferred from each well into a 96-well sample plate containing 50 μL of ultra-pure water (Millipore) for LC/MS analysis. The peak area response (PARR) ratio to internal standard of the compounds at 5, 15, 30, and 45 minutes was compared to the PARR at time 0 to determine the percent of test compound remaining at each time point. Half-lives were calculated using Excel software, fitting to a single-phase exponential decay equation.

| Structure (SMILES) | HLM [mL/min/kg] |
| --- | --- |
| COc1cccc2c(C(=O)OCC34CCN(CC3)CC4)c[nH]c12 [Compound 16, quinuclidin-4-ylmethyl 7-methoxy-1H-indole-3-carboxylate] | <13.608 |
| COc1ccc2c(C(=O)OCC34CCN(CC3)CC4)c[nH]c2c1 [Compound 17, quinuclidin-4-ylmethyl 6-methoxy-1H-indole-3-carboxylate] | <13.608 |
| COc1ccc2[nH]cc(C(=O)OCC34CCN(CC3)CC4)c2c1 [Compound 18, quinuclidin-4-ylmethyl 5-methoxy-1H-indole-3-carboxylate] | <13.608 |

Molecular target: CYP2C9 (Homo sapiens (Human), UniProt P11712)
Experiment: Cytochrome P450 inhibition in human liver microsomes, CYP2C9
Conditions: read-out: 2C9 IC50, Protocol 2

Chain of CYP2C9 (P11712 whole entry): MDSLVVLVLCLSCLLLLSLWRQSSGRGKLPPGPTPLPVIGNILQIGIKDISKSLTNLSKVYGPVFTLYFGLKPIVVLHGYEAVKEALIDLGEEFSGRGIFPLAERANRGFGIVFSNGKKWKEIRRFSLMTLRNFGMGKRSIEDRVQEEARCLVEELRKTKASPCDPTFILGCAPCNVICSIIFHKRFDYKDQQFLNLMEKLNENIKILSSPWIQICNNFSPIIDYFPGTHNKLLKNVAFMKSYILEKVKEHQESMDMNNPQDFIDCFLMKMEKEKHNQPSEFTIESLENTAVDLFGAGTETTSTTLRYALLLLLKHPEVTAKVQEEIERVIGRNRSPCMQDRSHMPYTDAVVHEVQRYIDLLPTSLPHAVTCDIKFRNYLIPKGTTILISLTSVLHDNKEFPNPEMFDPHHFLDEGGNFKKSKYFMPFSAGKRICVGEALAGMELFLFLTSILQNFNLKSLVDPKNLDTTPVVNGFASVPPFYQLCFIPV

| Structure (SMILES) | IC50 [nM] |
| --- | --- |
| COc1cccc2c(C(=O)OCC34CCN(CC3)CC4)c[nH]c12 [Compound 16, quinuclidin-4-ylmethyl 7-methoxy-1H-indole-3-carboxylate] | > 10000 |
| COc1ccc2[nH]cc(C(=O)OCC34CCN(CC3)CC4)c2c1 [Compound 18, quinuclidin-4-ylmethyl 5-methoxy-1H-indole-3-carboxylate] | > 10000 |

Molecular target: CYP2C19 (Homo sapiens (Human), UniProt P33261)
Experiment: Cytochrome P450 inhibition in human liver microsomes, CYP2C19
Conditions: read-out: 2C19 IC50, Protocol 2

Chain of CYP2C19 (P33261 whole entry): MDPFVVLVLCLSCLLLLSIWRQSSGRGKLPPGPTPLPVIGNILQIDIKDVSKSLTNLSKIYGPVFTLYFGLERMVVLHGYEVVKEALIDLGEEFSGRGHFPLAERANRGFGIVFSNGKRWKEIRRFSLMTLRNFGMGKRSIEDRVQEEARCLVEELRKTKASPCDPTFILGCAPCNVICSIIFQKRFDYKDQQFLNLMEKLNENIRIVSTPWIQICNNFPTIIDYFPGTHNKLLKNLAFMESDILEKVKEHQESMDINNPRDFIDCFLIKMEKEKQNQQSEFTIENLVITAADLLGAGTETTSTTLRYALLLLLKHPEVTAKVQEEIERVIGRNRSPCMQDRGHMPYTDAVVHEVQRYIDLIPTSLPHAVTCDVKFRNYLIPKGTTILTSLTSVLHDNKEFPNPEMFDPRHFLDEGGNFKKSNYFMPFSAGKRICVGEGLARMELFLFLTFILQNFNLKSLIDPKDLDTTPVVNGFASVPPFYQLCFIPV

| Structure (SMILES) | IC50 [nM] |
| --- | --- |
| COc1cccc2c(C(=O)OCC34CCN(CC3)CC4)c[nH]c12 [Compound 16, quinuclidin-4-ylmethyl 7-methoxy-1H-indole-3-carboxylate] | > 10000 |
| COc1ccc2[nH]cc(C(=O)OCC34CCN(CC3)CC4)c2c1 [Compound 18, quinuclidin-4-ylmethyl 5-methoxy-1H-indole-3-carboxylate] | > 10000 |

Molecular target: CYP1A2 (Homo sapiens (Human), UniProt P05177)
Experiment: Cytochrome P450 inhibition in human liver microsomes, CYP1A2
Conditions: read-out: 1A2 IC50, Protocol 2

Chain of CYP1A2 (P05177 whole entry): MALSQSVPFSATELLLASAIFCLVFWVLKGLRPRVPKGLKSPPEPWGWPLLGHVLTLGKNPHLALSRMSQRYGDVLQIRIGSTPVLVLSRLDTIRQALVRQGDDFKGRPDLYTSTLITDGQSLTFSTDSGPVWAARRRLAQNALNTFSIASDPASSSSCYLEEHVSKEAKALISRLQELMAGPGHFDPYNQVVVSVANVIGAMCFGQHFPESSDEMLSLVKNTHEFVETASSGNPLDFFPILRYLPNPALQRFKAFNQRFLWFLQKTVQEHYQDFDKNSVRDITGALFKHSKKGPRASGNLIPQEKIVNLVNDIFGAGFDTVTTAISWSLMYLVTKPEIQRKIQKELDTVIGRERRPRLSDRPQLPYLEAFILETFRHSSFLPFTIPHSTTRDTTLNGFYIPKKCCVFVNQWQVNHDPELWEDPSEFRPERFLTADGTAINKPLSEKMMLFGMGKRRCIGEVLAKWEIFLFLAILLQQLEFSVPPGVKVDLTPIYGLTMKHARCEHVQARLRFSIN

| Structure (SMILES) | IC50 [nM] |
| --- | --- |
| COc1cccc2c(C(=O)OCC34CCN(CC3)CC4)c[nH]c12 [Compound 16, quinuclidin-4-ylmethyl 7-methoxy-1H-indole-3-carboxylate] | > 10000 |
| COc1ccc2c(C(=O)OCC34CCN(CC3)CC4)c[nH]c2c1 [Compound 17, quinuclidin-4-ylmethyl 6-methoxy-1H-indole-3-carboxylate] | > 10000 |
| COc1ccc2[nH]cc(C(=O)OCC34CCN(CC3)CC4)c2c1 [Compound 18, quinuclidin-4-ylmethyl 5-methoxy-1H-indole-3-carboxylate] | > 10000 |

Molecular target: rat brain nicotinic receptor (α7 NAChR) (Rattus norvegicus (Rat), UniProt Q05941)
Experiment: not given
Assay type: binding
Conditions: not given

Chain of rat brain nicotinic receptor (α7 NAChR) (Q05941 23-502 limits assumed): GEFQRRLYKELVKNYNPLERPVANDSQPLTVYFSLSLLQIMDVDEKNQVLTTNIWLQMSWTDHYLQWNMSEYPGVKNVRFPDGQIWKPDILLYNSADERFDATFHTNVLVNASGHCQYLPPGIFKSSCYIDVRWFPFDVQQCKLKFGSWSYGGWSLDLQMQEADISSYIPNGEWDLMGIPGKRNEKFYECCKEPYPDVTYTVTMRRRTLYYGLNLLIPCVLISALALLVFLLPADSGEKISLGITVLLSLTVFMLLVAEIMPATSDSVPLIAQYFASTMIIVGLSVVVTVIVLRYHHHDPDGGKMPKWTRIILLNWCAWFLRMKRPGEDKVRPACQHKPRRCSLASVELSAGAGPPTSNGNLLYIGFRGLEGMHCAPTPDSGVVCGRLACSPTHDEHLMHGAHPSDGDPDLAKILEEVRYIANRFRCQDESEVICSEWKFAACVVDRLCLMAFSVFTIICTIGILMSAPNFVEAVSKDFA

| Structure (SMILES) | IC50 [nM] | Ki [nM] |
| --- | --- | --- |
| COc1cccc2c(C(=O)OCC34CCN(CC3)CC4)c[nH]c12 [Compound 16, quinuclidin-4-ylmethyl 7-methoxy-1H-indole-3-carboxylate] | 1400 | 1210 |
| COc1ccc2c(C(=O)OCC34CCN(CC3)CC4)c[nH]c2c1 [Compound 17, quinuclidin-4-ylmethyl 6-methoxy-1H-indole-3-carboxylate] | 376 | 329 |
| COc1ccc2[nH]cc(C(=O)OCC34CCN(CC3)CC4)c2c1 [Compound 18, quinuclidin-4-ylmethyl 5-methoxy-1H-indole-3-carboxylate] | 32.6 | 28.3 |

Tested on: not listed separately
Experiment: Human plasma stability
Assay type: in vitro ADME
Conditions: human, plasma, 2 h, 1 μM, pH 7.4
Method: Protocol 1: Studies were carried out in human plasma. All plasma was obtained from Bioreclamation and collected on sodium heparin. Plasma was adjusted to pH 7.4. A DMSO stock was first prepared for the test compound. An aliquot of the DMSO solution was dosed into 1 mL of plasma, which had been pre-warmed to 37° C., at a final test compound concentration of 1 μM. The vials were kept in a benchtop Thermomixer® for the duration of the experiment. Aliquots (100 μL) were taken at each time point (0, 15, 30, 60, and 120 minutes) and added to 96-well plates which had been pre-filled with 300 μL of acetonitrile. Samples were stored at 4° C. until the end of the experiment. After the final time point was sampled, the plate was mixed and then centrifuged at 3,000 rpm for 10 minutes. Aliquots of the supernatant were removed, diluted 1:1 into distilled water, and analyzed by LC-MS/MS. The peak area response ratio to internal standard (PARR) of the compound at 15, 30, 60 and 120 minutes was compared to the PARR at time 0 to determine the percent of test compound remaining at each time point. Half-lives were calculated using GraphPad software, fitting to a single-phase exponential decay equation.
Protocol 2: Studies were carried out in plasma. Plasma was prepared under approval of IRB and IACUC on sodium heparin. The pH of plasma was monitored and used within the range of pH 7.4 to pH 8.0. DMSO stocks were prepared for the test compounds. Aliquots of the DMSO solutions were diluted to 0.05 mM by 0.05 mM Sodium phosphate buffer with 0.5% BSA. Then 10 μL of 0.05 mM solutions were dosed into 90 μL of plasma in duplicates (n=2), which had been pre-warmed to 37° C., at a final test compound concentration of 5 μM. The plates were kept in a 37° C. water bath for the duration of the experiment. At each time point (0, 5, 15, 30, 45, 60, and 120 minutes), 400 μL of acetonitrile was added into corresponding wells. After the final time point was sampled, the plates were shaken at the vibrator (IKA, MTS 2/4) for 10 min (600 rpm/min) and then centrifuged at 5594 g for 15 min (Thermo Multifuge×3R). Aliquots of the supernatant were removed, diluted 1:1 into distilled water, and analyzed by LC-MS/MS. The peak area response ratio to internal standard (PARR) of the compounds at 5, 15, 30, 45, 60, and 120 minutes was compared to the PARR at time 0 to determine the percent of test compound remaining at each time point. Half-lives were calculated using Excel software, fitting to a single-phase exponential decay equation.

| Structure (SMILES) | % Remaining @ 2 h [%] |
| --- | --- |
| COc1ccc2[nH]cc(C(=O)OCC34CCN(CC3)CC4)c2c1 [Compound 18, quinuclidin-4-ylmethyl 5-methoxy-1H-indole-3-carboxylate] | 5.8 |

Same assay, conditions: human, plasma, pH 7.4

| Structure (SMILES) | half-life at 1 μM [min] |
| --- | --- |
| COc1ccc2[nH]cc(C(=O)OCC34CCN(CC3)CC4)c2c1 [Compound 18, quinuclidin-4-ylmethyl 5-methoxy-1H-indole-3-carboxylate] | 29.2 |

Tested on: not listed separately
Experiment: Metabolic stability assay in rat liver microsomes (RLM)
Assay type: in vitro ADME
Conditions: rat, microsomes, 1 μM, pH 7.4
Method: as §1, §2, §3, §4, §5

| Structure (SMILES) | RLM [mL/min/kg] |
| --- | --- |
| COc1cccc2c(C(=O)OCC34CCN(CC3)CC4)c[nH]c12 [Compound 16, quinuclidin-4-ylmethyl 7-methoxy-1H-indole-3-carboxylate] | 82.6672 |
| COc1ccc2c(C(=O)OCC34CCN(CC3)CC4)c[nH]c2c1 [Compound 17, quinuclidin-4-ylmethyl 6-methoxy-1H-indole-3-carboxylate] | 38.1652 |
| COc1ccc2[nH]cc(C(=O)OCC34CCN(CC3)CC4)c2c1 [Compound 18, quinuclidin-4-ylmethyl 5-methoxy-1H-indole-3-carboxylate] | 47.8757 |
